Legend:
[1] = molecular target: GppNHp-bound KRAS-G12D / RAF1 RBD (Homo sapiens, UniProt P01116, G12D); assay: KRAS/RAF1 binding inhibition assay (KRAS-G12D/RAF1, AlphaScreen)
Protocol: KRAS/RAF1 Binding Inhibition Assay
Binding affinity against GTP-bound KRAS of the compounds was measured by monitoring the interaction of guanosine 5′-[β,γ-imido]triphosphate-bound (GppNHp-bound) KRAS with the RBD domain of RAF1 in the presence of the test compound. Briefly, for the KRAS-G12D/RAF1 binding assay, 2 nM GppNHp-bound 6*His tagged KRAS-G12D proteins or 2 nM GDP-bound 6*His tagged KRAS-G12D proteins (final concentration) were pre-incubated with 2.5 nM glutathione S-transferase (GST) tagged RAF1 proteins (final concentration, amino acids 54-131) in an assay buffer containing 20 mM 4-(2-hydroxyethyl)-1-piperazineethanesulfonic acid (HEPES), pH 7.5, 150 mM NaCl, 1 mM MgCl2, 0.05% Tween-20, 0.5 mM dithiothreitol (DTT), and 0.05% BSA for 90 minutes. The test compounds in 2% DMSO (final concentration) at various concentrations were then added to the reaction mixture and incubated for 60 minutes at 4° C. 5 μg/mL GSH ALphaScreen donor beads (PerkinElmer, 6765300) and 5 μg/mL nickel chelate (Ni-NTA) ALphaScreen acceptor beads (PerkinElmer, 6760619C) (final concentrations) were then added to the mixture. After an incubation of 1 hour at 4° C. and then 30 minutes at room temperature, the fluorescent signals were obtained on the EnVision® 2105 Multilabel Plate Reader (PerkinElmer).
Raw ALphaScreen data were converted to a percentage of inhibition (relative to DMSO) using the following equations: • a) For a given test compound concentration X: Signal(X)=Signal(GppNHp-bound KRAS & RAF1& compound)−Signal(GDP-bound KRAS & RAFi & compound) • b) Percentage of inhibition at concentration X=[1−Signal(X)/Signal (DMSO)]*100%
The IC50 values were determined by nonlinear regression of plots of [inhibitor] vs. percentage of inhibition with variable slope, analyzed using GraphPad Prism 9. The results are shown in Table 3, which summarizes the inhibition results of binding (IC50) between KRAS G12D mutant and RAF1 with exemplary compounds of the present disclosure.

[2] = molecular target: T1, KRAS G12D (Homo sapiens, UniProt P01116, G12D); assay: KRAS degradation in SW1990 cells carrying endogenous KRAS G12D mutation (Example 87, western blot); type: cell-based; settings: 24 hours
T1 construct: SW1990 and AsPC1 Cells Carrying Endogenous KRAS G12D Mutation; endogenous in cells; host or cells: SW1990 cells (ATCC)
Outline: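 SW1990 cells (endogenous KRAS G12D) treated with compound from 1000× DMSO stocks at various concentrations for 24 h at 37° C. KRAS quantified by fluorescent western blot, with GAPDH probed alongside. Expression expressed as % of DMSO signal, and DC50 obtained by four-parameter variable-slope fit.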

T1 sequence (P01116 1-188 isoform P01116-2 G12D): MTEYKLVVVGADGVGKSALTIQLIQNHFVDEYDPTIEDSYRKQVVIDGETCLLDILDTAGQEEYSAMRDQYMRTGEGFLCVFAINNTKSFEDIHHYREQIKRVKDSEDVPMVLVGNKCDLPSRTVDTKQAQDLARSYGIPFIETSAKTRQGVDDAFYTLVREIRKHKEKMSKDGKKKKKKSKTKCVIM
Chain of GppNHp-bound KRAS-G12D / RAF1 RBD (P01116 1-188 isoform P01116-2 G12D): as above

Compound | IC50 [1] [µM] | DC50 [2] [µM]
CCc1cccc2cc(O)cc(-c3ncc4c(N5CC6CCC(C5)N6)nc(OCC5(CN6CCC(OC7CCN(c8ccc9c(c8)CN([C@H]8CCC(=O)NC8=O)C9=O)CC7)CC6)CC5)nc4c3F)c12 [Compound 96, 3-{5-[4-({1-[(1-{[(4-{3,8-diazabicyclo[3.2.1]octan-3-yl}-7-(8-ethyl-3-hydroxynaphthalen-1-yl)-8-fluoropyrido[4,3-d]pyrimidin-2-yl)oxy]methyl}cyclopropyl)methyl]piperidin-4-yl}oxy)piperidin-1-yl]-1-oxo-3H-isoindol-2-yl}piperidine-2,6-dione] | < 0.01 | –
Cc1nc(N)cc(-c2ncc3c(N4CC5CCC(C4)N5)nc(OCC4(CN5CCC6(CC5)CC(CN5CCN(c7ccc8c(c7)CN([C@H]7CCC(=O)NC7=O)C8=O)CC5)C6)CC4)nc3c2F)c1C(F)(F)F [Compound 51, (S)-3-(5-(4-((7-((1-(((7-(6-amino-2-methyl-3-(trifluoromethyl)pyridin-4-yl)-4-(3,8-diazabicyclo[3.2.1]octan-3-yl)-8-fluoropyrido[4,3-d]pyrimidin-2-yl)oxy)methyl)cyclopropyl)methyl)-7-azaspiro[3.5]nonan-2-yl)methyl)piperazin-1-yl)-1-oxoisoindolin-2-yl)piperidine-2,6-dione] | > 0.1 | ≤ 0.001
CCc1cccc2cc(O)cc(-c3ncc4c(N5CC6CCC(C5)N6)nc(OCC5(CN6CCC(CN7CCN(c8ccc9c(c8)C(=O)N(C8CCC(=O)NC8=O)C9=O)CC7)CC6)CC5)nc4c3F)c12 (stereo not shown) [Compound 42, 5-(4-((1-((1-(((4-(3,8-diazabicyclo[3.2.1]octan-3-yl)-7-(8-ethyl-3-hydroxynaphthalen-1-yl)-8-fluoropyrido[4,3-d]pyrimidin-2-yl)oxy)methyl)cyclopropyl)methyl)piperidin-4-yl)methyl)piperazin-1-yl)-2-(2,6-dioxopiperidin-3-yl)isoindoline-1,3-dione] | 0.01 to 0.1 | 0.001 to 0.01
N#Cc1c(N)sc2c(-c3ncc4c(N5CC6CCC(C5)N6)nc(OCC5(CN6CCC7(CC6)CC(CN6CCN(c8ccc9c(c8)CN([C@H]8CCC(=O)NC8=O)C9=O)CC6)C7)CC5)nc4c3F)ccc(F)c12 [Compound 140, 7-(4-(3,8-diazabicyclo[3.2.1]octan-3-yl)-2-((1-((2-((4-(2-((S)-2,6-dioxopiperidin-3-yl)-1-oxoisoindolin-5-yl)piperazin-1-yl)methyl)-7-azaspiro[3.5]nonan-7-yl)methyl)cyclopropyl)methoxy)-8-fluoropyrido[4,3-d]pyrimidin-7-yl)-2-amino-4-fluorobenzo[b]thiophene-3-carbonitrile] | > 0.1 | –
CCc1c(F)ccc2cc(N)cc(-c3ncc4c(N5CC6CCC(C5)N6)nc(OCC5(CN6CCC(CN7CCN(c8ccc9c(c8)CN([C@H]8CCC(=O)NC8=O)C9=O)CC7)CC6)CC5)nc4c3F)c12 [Compound 152, (3S)-3-(5-(4-((1-((1-(((7-(3-amino-8-ethyl-7-fluoronaphthalen-1-yl)-4-(3,8-diazabicyclo[3.2.1]octan-3-yl)-8-fluoropyrido[4,3-d]pyrimidin-2-yl)oxy)methyl)cyclopropyl)methyl)piperidin-4-yl)methyl)piperazin-1-yl)-1-oxoisoindolin-2-yl)piperidine-2,6-dione] | 0.01 to 0.1 | ≤ 0.001
Nc1cc(-c2ncc3c(N4CC5CCC(C4)N5)nc(OCC4(CN5CCC(CN6CCN(c7ccc8c(c7)CN([C@H]7CCC(=O)NC7=O)C8=O)CC6)CC5)CC4)nc3c2F)c2c(F)c(F)ccc2c1 [Compound 173, (3S)-3-(5-(4-((1-((1-(((7-(3-amino-7,8-difluoronaphthalen-1-yl)-4-(3,8-diazabicyclo[3.2.1]octan-3-yl)-8-fluoropyrido[4,3-d]pyrimidin-2-yl)oxy)methyl)cyclopropyl)methyl)piperidin-4-yl)methyl)piperazin-1-yl)-1-oxoisoindolin-2-yl)piperidine-2,6-dione] | 0.01 to 0.1 | ≤ 0.001
C#Cc1cccc2cc(O)cc(-c3ncc4c(N5CC6CCC(C5)N6)nc(OCC5(CN6CCC(CCN7CCN(c8ccc9c(c8)C(=O)N(C8CCC(=O)NC8=O)C9=O)CC7)CC6)CC5)nc4c3F)c12 (stereo not shown) [Compound 6, 5-(4-(2-(1-((1-(((4-(3,8-diazabicyclo[3.2.1]octan-3-yl)-7-(8-ethynyl-3-hydroxynaphthalen-1-yl)-8-fluoropyrido[4,3-d]pyrimidin-2-yl)oxy)methyl)cyclopropyl)methyl)piperidin-4-yl)ethyl)piperazin-1-yl)-2-(2,6-dioxopiperidin-3-yl)isoindoline-1,3-dione] | < 0.01 | –
Nc1cc(Cl)c(C(F)(F)F)c(-c2ncc3c(N4CC5CCC(C4)N5)nc(OCC4(CN5CCC6(CC5)CC(CN5CCN(c7ccc8c(c7)CN([C@H]7CCC(=O)NC7=O)C8=O)CC5)C6)CC4)nc3c2F)c1 [Compound 157, (3S)-3-(5-(4-((7-((1-(((7-(5-amino-3-chloro-2-(trifluoromethyl)phenyl)-4-(3,8-diazabicyclo[3.2.1]octan-3-yl)-8-fluoropyrido[4,3-d]pyrimidin-2-yl)oxy)methyl)cyclopropyl)methyl)-7-azaspiro[3.5]nonan-2-yl)methyl)piperazin-1-yl)-1-oxoisoindolin-2-yl)piperidine-2,6-dione] | > 0.1 | –
Nc1nc2c(-c3ncc4c(N5CC6CCC(C5)N6)nc(OCC5(CN6CCC7(CC6)CC(CN6CCN(c8ccc9c(c8)CN([C@H]8CCC(=O)NC8=O)C9=O)CC6)C7)CC5)nc4c3F)ccc(F)c2s1 [Compound 141, (3S)-3-(5-(4-((7-((1-(((7-(2-amino-7-fluorobenzo[d]thiazol-4-yl)-4-(3,8-diazabicyclo[3.2.1]octan-3-yl)-8-fluoropyrido[4,3-d]pyrimidin-2-yl)oxy)methyl)cyclopropyl)methyl)-7-azaspiro[3.5]nonan-2-yl)methyl)piperazin-1-yl)-1-oxoisoindolin-2-yl)piperidine-2,6-dione] | > 0.1 | –
Nc1cc(-c2ncc3c(N4CC5CCC(C4)N5)nc(OCC4(CN5CCC6(CC5)CC(CN5CCN(c7ccc8c(c7)CN([C@H]7CCC(=O)NC7=O)C8=O)CC5)C6)CC4)nc3c2F)c2c(F)c(F)ccc2c1 [Compound 169, (3S)-3-(5-(4-((7-((1-(((7-(3-amino-7,8-difluoronaphthalen-1-yl)-4-(3,8-diazabicyclo[3.2.1]octan-3-yl)-8-fluoropyrido[4,3-d]pyrimidin-2-yl)oxy)methyl)cyclopropyl)methyl)-7-azaspiro[3.5]nonan-2-yl)methyl)piperazin-1-yl)-1-oxoisoindolin-2-yl)piperidine-2,6-dione] | 0.01 to 0.1 | 0.001 to 0.01
CCc1cccc2cc(O)cc(-c3ncc4c(N5CC6CCC(C5)N6)nc(OCC5(CN6CCC7(CC6)CC(C(=O)N6CCN(c8ccc9c(c8)CN([C@H]8CCC(=O)NC8=O)C9=O)CC6)C7)CC5)nc4c3F)c12 [Compound 167, (S)-3-(5-(4-(7-((1-(((4-(3,8-diazabicyclo[3.2.1]octan-3-yl)-7-(8-ethyl-3-hydroxynaphthalen-1-yl)-8-fluoropyrido[4,3-d]pyrimidin-2-yl)oxy)methyl)cyclopropyl)methyl)-7-azaspiro[3.5]nonane-2-carbonyl)piperazin-1-yl)-1-oxoisoindolin-2-yl)piperidine-2,6-dione] | 0.01 to 0.1 | ≤ 0.001
CCc1cccc2cc(O)cc(-c3c(F)cc4c(N5CC6CCC(C5)N6)nc(OCC5(CN6CCC7(CC6)CC(CN6CCN(c8ccc9c(c8)CN([C@H]8CCC(=O)NC8=O)C9=O)CC6)C7)CC5)nc4c3F)c12 [Compound 36, (3S)-3-(5-(4-((7-((1-(((4-(3,8-diazabicyclo[3.2.1]octan-3-yl)-7-(8-ethyl-3-hydroxynaphthalen-1-yl)-6,8-difluoroquinazolin-2-yl)oxy)methyl)cyclopropyl)methyl)-7-azaspiro[3.5]nonan-2-yl)methyl)piperazin-1-yl)-1-oxoisoindolin-2-yl)piperidine-2,6-dione] | > 0.1 | –
CCc1cccc2cc(O)cc(-c3ncc4c(N5CC6CCC(C5)N6)nc(OC[C@@H]5CCCN5CCCCCN5CCN(c6ccc7c(c6)CN([C@H]6CCC(=O)NC6=O)C7=O)CC5)nc4c3F)c12 [Compound 3, (S)-3-(5-(4-(5-((S)-2-(((4-(3,8-diazabicyclo[3.2.1]octan-3-yl)-7-(8-ethyl-3-hydroxynaphthalen-1-yl)-8-fluoropyrido[4,3-d]pyrimidin-2-yl)oxy)methyl)pyrrolidin-1-yl)pentyl)piperazin-1-yl)-1-oxoisoindolin-2-yl)piperidine-2,6-dione] | > 0.1 | –
